Test results from US8889689B2, “Bifunctional metnase/intnase inhibitors and related compositions and methods of treatment of cancer” (STC.UNM, priority 2010, dated 2014).
“Also recorded” adds a separate entry of the source.

Assays:
[1] = tested on: Raji leukemia cells; experiment: Cytotoxicity / proliferation at varying concentrations vs vehicle control; format: cell-based
Procedure: (§1) In separate experiments, the bifunctional Metnase inhibitor, 4h-new3 (see FIGS. 4 and 43) and the monofunctional Metnase inhibitor 4h (FIG. 1 and FIG. 43), were tested at varying concentrations to determine cytotoxic activity in Raji leukemia eels and MCI-H929 myeloma cells. The compounds were tested against vehicle control at varying concentrations in the above-described cancer cell lines.

[2] = tested on: NCI-H929 myeloma cells; experiment: as above; format: cell-based
Procedure: as §1

[3] = tested on: KG-1 leukemia cells; experiment: KG-1 cell survival and proliferation (trypan blue counts), alone or with VP-16; format: cell-based, human; conditions: KG-1 cells
Text: KG-1 cells are a human acute myeloid leukemia cell line established from a patient with acute myelogenous leukemia that had evolved from an erythroleukemia. Cytotoxicity of etoposide, a semisynthetic derivative of podophyllotoxin that also is called Vepesid (Bristol; code designation VP-16-213, abbreviated VP-16), is mediated by its interaction with DNA topoisomerase II (Topo II), an ATP-dependent nuclear enzyme that regulates DNA topology by transiently breaking and rejoining double-stranded DNA to allow DNA strand passage. Under normal conditions, the formation of a DNA strand break by Topo II is followed by precise realignment and resealing of the broken ends.
The human myeloid cell line KG-1 was grown in RPMI1640 with 10% FBS. The small cell lung cancer cell line CRL5898 was grown in HITES medium (Dulbecco's medium:Ham's F12, 50:50 mix, Insulin 0.005 mg/ml Transferrin 0.01 mg/ml Sodium selenite 30 nM Hydrocortisone 10 nM beta-estradiol 10 nM HEPES 10 mM L-glutamine 2 mM (in addition to that in the base medium)). Both cell lines were seeded at 10,000 cells/ml in the appropriate medium in 6 well plates. The Chem Div compounds were resuspended as 5 mM stock solutions in DMSO. […] Cells were plated and treated in triplicate and counted daily for 4 days in trypan blue to assess survival and proliferation.

[4] = tested on: A549 lung cancer cells; experiment: Colony formation assay, alone or in combination with cisplatin
[5] = A549, compound constantly present, cisplatin present for a shorter period
[6] = A549, compound present for 24 hours at the beginning then removed

CC(C)n1cc(C(=O)O)c(=O)c2ccc(C(=O)c3ccc(CN(CCCl)CCCl)cc3)cc21 [4H_new3]
level at which proliferation is decreased [1]: below 1 μM | decrease of cancer cell proliferation compared with monofunctional inhibitor 4h ([1]; varying concentrations): significantly more effective at decreasing cancer cell proliferation | level at which proliferation is decreased [2]: below 1 μM | decrease of cancer cell proliferation compared with monofunctional inhibitor 4h ([2]; varying concentrations): significantly more effective at decreasing cancer cell proliferation

CC(C)n1cc(C(=O)O)c(=O)c2ccccc21 [5483-0023]
cytotoxic activity / proliferation, compound on its own ([3]; compound alone): has cytotoxic activity on its own; also recorded: Decreases Proliferation of KG-1 Cells on its Own | potentiation of cytotoxic activity of VP-16 ([3]; in combination with VP-16): increases the cytotoxic activity of the anti-cancer drug VP-16; also recorded: Potentiates VP-16

Cn1c(CCCC(=O)N2CCN(c3cc4c(cc3F)c(=O)c(C(=O)O)cn4C3CC3)CC2)nc2cc(N(CCCl)CCCl)ccc21 [WW-01]
cytotoxicity of compound compared with cisplatin [4, 5]: significantly greater activity than cisplatin | effect against colony survival, in combination with cisplatin [4, 5]: especially active in combination with cisplatin at higher concentrations

O=C(O)c1cn(C2CC2)c2cc(N3CCN(C(=O)CCCc4ccc(N(CCCl)CCCl)cc4)CC3)c(F)cc2c1=O [WW-10]
cytotoxicity of compound compared with cisplatin ([4]; A549, compound present 24 hours, cisplatin at higher concentration, shorter period): greater colony forming cell cytotoxicity than did cisplatin present at a higher concentration | effect against colony survival, compound alone [4, 6]: significant dose dependent effect against colony survival | effect against colony survival, in combination with cisplatin [4, 6]: especially active in combination with cisplatin at higher concentrations; also recorded: significant dose dependent effect against colony survival
